Measured values reported in paper PMC12455572, “Amphipathic Proline-Rich Cell Penetrating Peptides for Targeting Mitochondria” (ACS Chemical Biology, 2025).

Tested on: MCF-7 cells
Assay: Flow cytometry at 4 °C versus 37 °C
Type: cell-based
Conditions: MCF-7, 20 µM, 1 h
Method: MCF-7 cells were seeded in a 24-well plate at 150′000 cells/well in DMEM (1 mL, 10% FCS), and allowed to adhere overnight. The medium was removed, the cells were washed with PBS (250 μL, 1x) and incubated with the peptide solution at 20 μM, 10 μM, 5 μM or 2.5 μM in medium (200 μL, 1% FCS) for 1 h at 37 °C. The medium was removed, and the cells were washed with PBS (250 μL, 2x). Trypsin (100 μL, 0.05%) was added, and the cells were incubated at 37 °C for 5 min. D-PBS with Mg^2+ and Ca^2+ (300 μL, 4 °C) was added, the cells were resuspended and centrifuged for 5 min at 0.4 rcf. The supernatant was carefully removed, and the cells were resuspended in a solution of PBS containing 1.5 μM PI and 2 mM EDTA (400 μL at 4 °C). […] Each sample contained 10′000 cells and was analyzed in triplicate. […]
Figure S9. […] After 1 h incubation at 4 °C, the fluorescence signal is in case of most of the peptides lower, indicating an endocytosis pathway. […]
of different entry mechanisms. The indicated P-values were determined using one-way ANOVA followed by Tukey’s […]
(also on this page, place not known: µM µM °C µM °C (ChaZZ) µM °C (ChaZZ) µM °C (ChaZZ) µM °C 20000Mean fluorescence intensity (ChaZZ)3 °CCells °C (ChaZZ) µM °C (ChaZZ) µM °C (ChaZZ) 3-Cha µM °C (ChaZZ) 3-Cha µM °C (ChaZZ) 3-Cha µM °C (ChaZZ) 3-Cha µM °C (ChaZZ) 3-Cha µM °C (ChaZZ) 3-Cha µM °C 30000Mean fluorescence intensity)

CF-Ahx-(ChaZZ)3-NH2
Fluorescence signal after incubation at 4 °C compared with 37 °C (FACS): close-to-level signal
